Where two headings read alike, the source gives them in different places.
Legend:
[1] = tested on: P. falciparum male gametocytes; test: P. falciparum Dual Gamete Formation Assay (PfDGFA), male readout (exflagellation); format: cell-based, Plasmodium falciparum NF54; details: for HitlevelM: number of replicates with >50% inhibition in the male readout; for IC50: read-out: Male IC50; for Selectivity Ratio M: HepG2 Tox50 versus male IC50
Procedure, shortened: (§1)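 Read-outs are automated image counts of exflagellation centres (brightfield, 10 frames over 1 s) and Pfs25-positive female gametes (Cy3 fluorescence).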

[2] = tested on: P. falciparum female gametocytes; test: P. falciparum Dual Gamete Formation Assay (PfDGFA), female readout (Pfs25-positive female gametes); format: cell-based, Plasmodium falciparum NF54; details: for HitlevelF: number of replicates with >50% inhibition in the female readout; for IC50: read-out: Female IC50; for Selectivity ratio F: HepG2 Tox50 versus female IC50
Procedure, shortened: as §1

[3] = tested on: HepG2 cells; test: HepG2 cytotoxicity counter-screen
[4] = Plasmodium falciparum, PfDGFA, 24 h incubation with gametocytes before induction, exflagellation readout
[5] = Plasmodium falciparum, PfDGFA, 24 h incubation with gametocytes before induction, female gamete readout
[6] = cytotoxic activity against HepG2 cells
[7] = 2µM, 24h preincubation with gametocytes, average of replicates
[8] = 2µM, 24h preincubation with gametocytes, replicate R1
[9] = 2µM, 24h preincubation with gametocytes, replicate R4
[10] = PfDGFA, 24 h incubation with gametocytes before induction, exflagellation readout
[11] = PfDGFA, 24 h incubation with gametocytes before induction, female gamete readout
[12] = PfDGFA at 2µM, 24h preincubation with gametocytes, average of replicates
[13] = PfDGFA at 2µM, 24h preincubation with gametocytes, replicate R1
[14] = PfDGFA at 2µM, 24h preincubation with gametocytes, replicate R3
[15] = PfDGFA at 2µM, 24h preincubation with gametocytes, replicate R4
[16] = 2µM, 24h preincubation with gametocytes prior to induction of gametogenesis, average of replicates
[17] = 2µM, 24h preincubation with gametocytes prior to induction of gametogenesis, replicate R1
[18] = 2µM, 24h preincubation with gametocytes prior to induction of gametogenesis, replicate R3
[19] = 2µM, 24h preincubation with gametocytes prior to induction of gametogenesis, replicate R4

CCC1CN2CCc3cc(OC)c(OC)cc3C2CC1CC1NCCc2cc(OC)c(OC)cc21.Cl (stereo not shown) [TCMDC-125849]
HitlevelM ([1]; 2µM, 24h preincubation): 2
inhibition at 2 µM ([1]; Plasmodium falciparum, 2µM, 24h preincubation with gametocytes prior to induction of gametogenesis, average of replicates, read-out: Average inhibition male (%)): 47.7%
inhibition at 2 µM ([1]; Plasmodium falciparum, 2µM, 24h preincubation with gametocytes prior to induction of gametogenesis, replicate R1, read-out: % inhibition male (individual replicates) R1): 38.6%
inhibition at 2 µM ([1]; Plasmodium falciparum, 2µM, 24h preincubation with gametocytes prior to induction of gametogenesis, replicate R2, read-out: % inhibition male (individual replicates) R2): 27.6%
inhibition at 2 µM ([1]; Plasmodium falciparum, 2µM, 24h preincubation with gametocytes prior to induction of gametogenesis, replicate R3, read-out: % inhibition male (individual replicates) R3): 59.3%
inhibition at 2 µM ([1]; Plasmodium falciparum, 2µM, 24h preincubation with gametocytes prior to induction of gametogenesis, replicate R4, read-out: % inhibition male (individual replicates) R4): 65.1%
IC50 [1, 4]: 3530 nM
HitlevelF ([2]; 2µM, 24h preincubation): 4
times more potent against females than males ([2]; PfDGFA female versus male gametocytes): 4.7
inhibition at 2 µM ([2]; Plasmodium falciparum, 2µM, 24h preincubation with gametocytes prior to induction of gametogenesis, average of replicates, read-out: Average inhibition female (%)): 93.3%
inhibition at 2 µM ([2]; Plasmodium falciparum, 2µM, 24h preincubation with gametocytes prior to induction of gametogenesis, replicate R1, read-out: % inhibition female (individual replicates) R1): 91%
inhibition at 2 µM ([2]; Plasmodium falciparum, 2µM, 24h preincubation with gametocytes prior to induction of gametogenesis, replicate R2, read-out: % inhibition female (individual replicates) R2): 79%
inhibition at 2 µM ([2]; Plasmodium falciparum, 2µM, 24h preincubation with gametocytes prior to induction of gametogenesis, replicate R3, read-out: % inhibition female (individual replicates) R3): 103%
inhibition at 2 µM ([2]; Plasmodium falciparum, 2µM, 24h preincubation with gametocytes prior to induction of gametogenesis, replicate R4, read-out: % inhibition female (individual replicates) R4): 100%
IC50 [2, 5]: 750 nM
Tox50 [3, 6]: 27.47 µM

COc1ccc(CCNCCCCCCNCCc2ccc(Cl)c3ccccc23)cc1OC.Cl [TCMDC-131270]
Average inhibition male (%) [1, 7]: 92.0%
% inhibition male (individual replicates) R1 [1, 8]: 90.1%
% inhibition male (individual replicates) R4 [1, 9]: 89.1%
Selectivity Ratio M [1]: 2.16
IC50 [1, 10]: 1870 nM
Average inhibition female (%) [2, 7]: 44.5%
% inhibition female (individual replicates) R1 [2, 8]: 48.1%
% inhibition female (individual replicates) R3 ([2]; 2µM, 24h preincubation with gametocytes, replicate R3): 32.3%
% inhibition female (individual replicates) R4 [2, 9]: 35.6%
Selectivity ratio F [2]: 0.76
IC50 [2, 11]: 5300 nM
Tox50 [3, 6]: 4.03 µM

COc1ccc(CCNCCCCCCNCCc2ccc(Cl)cc2)c(Cl)c1OC.Cl [TCMDC-131272]
Selectivity Ratio M [1]: 2.8
Average inhibition male (%) [1, 12]: 69.3%
% inhibition male (individual replicates) R1 [1, 13]: 64.8%
% inhibition male (individual replicates) R3 [1, 14]: 45.7%
% inhibition male (individual replicates) R4 [1, 15]: 90.2%
IC50 [1, 10]: 1760 nM
HitlevelM ([1]; 2µM): 3
Selectivity ratio F [2]: 1.14
Average inhibition female (%) [2, 12]: 29.4%
% inhibition female (individual replicates) R1 [2, 13]: 25.7%
% inhibition female (individual replicates) R3 [2, 14]: -3.5%
% inhibition female (individual replicates) R4 [2, 15]: 29.5%
IC50 [2, 11]: 4350 nM
HitlevelF ([2]; 2µM): 1
Tox50 [3, 6]: 4.93 µM

C[C@H](Cc1ccc(Oc2ccc(C[C@@H](C)NC[C@H](O)c3cccc(Cl)c3)cc2)cc1)NC[C@H](O)c1cccc(Cl)c1.Cl [TCMDC-131560]
Selectivity Ratio M [1]: 2.05
Average inhibition male (%) [1, 12]: 76.2%
% inhibition male (individual replicates) R1 [1, 13]: 79.7%
% inhibition male (individual replicates) R3 [1, 14]: 57.0%
% inhibition male (individual replicates) R4 [1, 15]: 91.6%
IC50 [1, 10]: 1500 nM
HitlevelM ([1]; 2µM): 4
Selectivity ratio F [2]: 1.25
Average inhibition female (%) [2, 12]: 43.2%
% inhibition female (individual replicates) R1 [2, 13]: 35.8%
% inhibition female (individual replicates) R3 [2, 14]: 26.6%
% inhibition female (individual replicates) R4 [2, 15]: 73.1%
IC50 [2, 11]: 2460 nM
HitlevelF ([2]; 2µM): 1
Tox50 [3, 6]: 3.07 µM

C[C@H](Cc1ccc(OCCCCCOc2ccc(C[C@@H](C)NC[C@H](O)c3cccc(Cl)c3)cc2)cc1)NC[C@H](O)c1cccc(Cl)c1.Cl [TCMDC-131563]
Selectivity Ratio M [1]: 2.4
Average inhibition male (%) [1, 12]: 65.6%
% inhibition male (individual replicates) R1 [1, 13]: 66.8%
% inhibition male (individual replicates) R3 [1, 14]: 65.3%
% inhibition male (individual replicates) R4 [1, 15]: 85.7%
IC50 [1, 10]: 1350 nM
HitlevelM ([1]; 2µM): 3
Selectivity ratio F [2]: 1.3
Average inhibition female (%) [2, 12]: 27.5%
% inhibition female (individual replicates) R1 [2, 13]: 37.3%
% inhibition female (individual replicates) R3 [2, 14]: 14.2%
% inhibition female (individual replicates) R4 [2, 15]: 41.5%
IC50 [2, 11]: 2490 nM
HitlevelF ([2]; 2µM): 0
Tox50 [3, 6]: 3.24 µM

CC[C@H]1CN2CCc3cc(OC)c(OC)cc3[C@@H]2C[C@@H]1C[C@H]1NCCc2c1cc(OC)c(O)c2Cl [TCMDC-131802]
Average inhibition male (%) [1, 16]: 54.2%
% inhibition male (individual replicates) R1 [1, 17]: 49.4%
% inhibition male (individual replicates) R3 [1, 18]: 27.8%
% inhibition male (individual replicates) R4 [1, 19]: 72.9%
HitlevelM ([1]; 2µM, 24h preincubation): 2
IC50 [1, 10]: 1910 nM
Average inhibition female (%) [2, 16]: 66.5%
% inhibition female (individual replicates) R1 [2, 17]: 51.1%
% inhibition female (individual replicates) R3 [2, 18]: 66.5%
% inhibition female (individual replicates) R4 [2, 19]: 85.4%
HitlevelF ([2]; 2µM, 24h preincubation): 4
IC50 [2, 11]: 640 nM
Tox50 [3]: 1.67 µM

Br.CC[C@H]1CN2CCc3cc(OC)c(OC)cc3[C@@H]2C[C@@H]1C[C@H]1NCCc2c1cc(OC)c(O)c2I [TCMDC-131829]
Selectivity Ratio M [1]: 7.59
IC50 ([1]; Plasmodium falciparum, 24 h): 840 nM
inhibition at 2 µM ([1]; Plasmodium falciparum, read-out: % inhibition male (individual replicates) R1): 84.6%
inhibition at 2 µM ([1]; Plasmodium falciparum, read-out: % inhibition male (individual replicates) R2): 83.8%
inhibition at 2 µM ([1]; Plasmodium falciparum, read-out: % inhibition male (individual replicates) R3): 88.6%
inhibition at 2 µM ([1]; Plasmodium falciparum, read-out: % inhibition male (individual replicates) R4): 95.7%
inhibition at 2 µM ([1]; Plasmodium falciparum, read-out: Average inhibition male (%)): 88.2%
HitlevelM ([1]; 2µM): 4
Selectivity ratio F [2]: 21.58
IC50 ([2]; Plasmodium falciparum, 24 h): 290 nM
inhibition at 2 µM ([2]; Plasmodium falciparum, read-out: % inhibition female (individual replicates) R1): 83.8%
inhibition at 2 µM ([2]; Plasmodium falciparum, read-out: % inhibition female (individual replicates) R2): 92.3%
inhibition at 2 µM ([2]; Plasmodium falciparum, read-out: % inhibition female (individual replicates) R3): 106%
inhibition at 2 µM ([2]; Plasmodium falciparum, read-out: % inhibition female (individual replicates) R4): 88.5%
inhibition at 2 µM ([2]; Plasmodium falciparum, read-out: Average inhibition female (%)): 92.8%
HitlevelF ([2]; 2µM): 4
Tox50 [3, 6]: 6.35 µM

N=C(N)NCCN(Cc1ccccc1)c1ccc(Cl)cc1 [TCMDC-131838]
Selectivity Ratio M [1]: 72.58
inhibition at 2 µM ([1]; Plasmodium falciparum, 2µM, 24h preincubation with gametocytes, average of replicates, read-out: Average inhibition male (%)): 98.3%
inhibition at 2 µM ([1]; Plasmodium falciparum, 2µM, 24h preincubation with gametocytes, replicate R1, read-out: % inhibition male (individual replicates) R1): 96.5%
inhibition at 2 µM ([1]; Plasmodium falciparum, 2µM, 24h preincubation with gametocytes, replicate R2, read-out: % inhibition male (individual replicates) R2): 98.5%
inhibition at 2 µM ([1]; Plasmodium falciparum, 2µM, 24h preincubation with gametocytes, replicate R3, read-out: % inhibition male (individual replicates) R3): 97.4%
inhibition at 2 µM ([1]; Plasmodium falciparum, 2µM, 24h preincubation with gametocytes, replicate R4, read-out: % inhibition male (individual replicates) R4): 101%
IC50 [1, 4]: 670 nM
Selectivity ratio F [2]: 7.49
inhibition at 2 µM ([2]; Plasmodium falciparum, 2µM, 24h preincubation with gametocytes, average of replicates, read-out: Average inhibition female (%)): 61.5%
inhibition at 2 µM ([2]; Plasmodium falciparum, 2µM, 24h preincubation with gametocytes, replicate R1, read-out: % inhibition female (individual replicates) R1): 40.2%
inhibition at 2 µM ([2]; Plasmodium falciparum, 2µM, 24h preincubation with gametocytes, replicate R2, read-out: % inhibition female (individual replicates) R2): 88.5%
inhibition at 2 µM ([2]; Plasmodium falciparum, 2µM, 24h preincubation with gametocytes, replicate R3, read-out: % inhibition female (individual replicates) R3): 50%
inhibition at 2 µM ([2]; Plasmodium falciparum, 2µM, 24h preincubation with gametocytes, replicate R4, read-out: % inhibition female (individual replicates) R4): 67.4%
IC50 [2, 5]: 6500 nM
Tox50 [3, 6]: 48.68 µM

COc1cc2nc(NCCCN3CCCCC3)nc(NCc3ccccc3)c2cc1OC [TCMDC-132012]
Selectivity Ratio M [1]: 5.75
Average inhibition male (%) [1, 12]: 71.6%
% inhibition male (individual replicates) R1 [1, 13]: 87.9%
% inhibition male (individual replicates) R3 [1, 14]: 87.5%
% inhibition male (individual replicates) R4 [1, 15]: 91.8%
IC50 [1, 10]: 1890 nM
HitlevelM ([1]; 2µM): 3
Selectivity ratio F [2]: 1.71
Average inhibition female (%) [2, 12]: 56.5%
% inhibition female (individual replicates) R1 [2, 13]: 53.1%
% inhibition female (individual replicates) R3 [2, 14]: 57.0%
% inhibition female (individual replicates) R4 [2, 15]: 64.1%
IC50 [2, 11]: 6340 nM
HitlevelF ([2]; 2µM): 4
Tox50 [3, 6]: 10.87 µM

CCc1c(CCNCCCCCCNC(C)(C)Cc2ccc3c(c2CC)OCO3)ccc(OC)c1OC.Cl [TCMDC-132055]
Selectivity Ratio M [1]: 2.57
Average inhibition male (%) [1, 12]: 75.9%
% inhibition male (individual replicates) R1 [1, 13]: 71.0%
% inhibition male (individual replicates) R3 [1, 14]: 61.7%
% inhibition male (individual replicates) R4 [1, 15]: 83.6%
IC50 [1, 10]: 1380 nM
HitlevelM ([1]; 2µM): 4
Selectivity ratio F [2]: 0.81
Average inhibition female (%) [2, 12]: 27.4%
% inhibition female (individual replicates) R1 [2, 13]: 20.6%
% inhibition female (individual replicates) R3 [2, 14]: -1.3%
% inhibition female (individual replicates) R4 [2, 15]: 28.0%
IC50 [2, 11]: 4400 nM
HitlevelF ([2]; 2µM): 1
Tox50 [3, 6]: 3.55 µM

Source: paper PMC10584170, “Machine learning-based phenotypic imaging to characterise the targetable biology of Plasmodium falciparum male gametocytes for the development of transmission-blocking antimalarials” (PLOS Pathogens, 2023)
